We go through 31 compounds from ChEMBL document CHEMBL2150910, “Initial Optimization of a New Series of γ-Secretase Modulators Derived from a Triterpene Glycoside” (ACS Med Chem Lett, 2012).

Test [1] in a line: Inhibition of gamma-secretase-mediated amyloid beta-42 production in diluted 2B7 conditioned media after 5 hrs.
A short description of test [2]: Inhibition of gamma-secretase-mediated amyloid beta-40 production in diluted 2B7 conditioned media after 5 hrs.
Test [3] is described as follows: Inhibition of gamma-secretase-mediated amyloid beta-40 production in diluted 2B7 conditioned media at 20 uM after 5 hrs.
Test [4] is described as follows: Inhibition of gamma-secretase-mediated amyloid beta-40 production in diluted 2B7 conditioned media at 4 uM after 5 hrs.

One may read the IC50 as the point on the concentration scale where inhibition reaches its midpoint. For orientation: inhibition means the change of the read-out against control, counted positive when it falls. A higher inhibition goes with a strong effect.

With `CC(=O)O[C@@H]([C@H]1C[C@@H](C)[C@H]2[C@H](O1)[C@H](O)[C@@]1(C)[C@@H]3CC[C@H]4C(C)(C)[C@@H](O[C@H]5CN(CC(N)=O)CCO5)CC[C@@]45C[C@@]35CC[C@]21C)C(C)(C)O`, the half-maximal inhibitory concentration (IC50) in test [1] turned out to be 0.15 µM; in test [2] it was 7.8 µM.

`CC(=O)O[C@@H]([C@H]1C[C@@H](C)[C@H]2[C@H](O1)[C@H](O)[C@@]1(C)[C@@H]3CC[C@H]4C(C)(C)[C@@H](O[C@H]5CN(CC(C)(C)O)CCO5)CC[C@@]45C[C@@]35CC[C@]21C)C(C)(C)O`: the figures for the half-inhibitory concentration (IC50) in test [1] and in test [2] were 0.23 µM and 9.4 µM, respectively.

`C[C@@H]1C[C@H]([C@H](O)C(C)(C)O)O[C@H]2[C@H]1[C@@]1(C)CC[C@@]34C[C@@]35CC[C@H](O)C(C)(C)[C@@H]5CC[C@H]4[C@]1(C)[C@H]2O`: in test [1], the IC50 was > 10 µM.

Regarding `CC(=O)O[C@@H]([C@H]1C[C@@H](C)[C@H]2[C@H](O1)C(=O)[C@@]1(C)[C@@H]3CC[C@H]4C(C)(C)[C@@H](O[C@@H]5OC[C@@H](O)[C@H](O)[C@H]5O)CC[C@@]45C[C@@]35CC[C@]21C)C(C)(C)O`, the concentration for half-maximal inhibition (IC50) in test [1] is 0.6 µM.

For `CC(=O)O[C@@H]([C@H]1C[C@@H](C)[C@H]2[C@H](O1)[C@H](O)[C@@]1(C)[C@@H]3CC[C@H]4C(C)(C)[C@@H](O[C@H]5CN(C(=O)c6cn(C)cn6)CCO5)CC[C@@]45C[C@@]35CC[C@]21C)C(C)(C)O`, the IC50 in test [1] turned out to be 0.13 µM. This compound came in with an inhibition in test [3] of 44%.

In test [1], `CC(=O)O[C@@H]([C@H]1C[C@@H](C)[C@H]2[C@H](O1)[C@H](O)[C@@]1(C)[C@@H]3CC[C@H]4C(C)(C)[C@@H](O[C@H]5CN(C(=O)N(C)C)CCO5)CC[C@@]45C[C@@]35CC[C@]21C)C(C)(C)O` displayed a concentration for half-maximal inhibition (IC50) of 0.06 µM. In addition, the inhibition in test [3] worked out at 40%.

In test [1], `CC(=O)O[C@@H]([C@H]1C[C@@H](C)[C@H]2[C@H](O1)[C@H](O)[C@@]1(C)[C@@H]3CC[C@H]4C(C)(C)[C@@H](O[C@H]5CN(CC(F)(F)F)CCO5)CC[C@@]45C[C@@]35CC[C@]21C)C(C)(C)O` gave an IC50 of 1.19 µM. The compound also returned an inhibition in test [3] of 47%.

With `CC(=O)O[C@@H]([C@H]1C[C@@H](C)[C@H]2[C@H](O1)[C@H](O)[C@@]1(C)[C@@H]3CC[C@H]4C(C)(C)[C@@H](O[C@@H](CN(C)C)OCCN(C)C)CC[C@@]45C[C@@]35CC[C@]21C)C(C)(C)O`, the IC50 in test [1] was found to be 2.4 µM.

On to `CCCN1CCO[C@@H](O[C@H]2CC[C@]34C[C@]35CC[C@]3(C)[C@@H]6[C@H](O[C@@H]([C@H](OC(C)=O)C(C)(C)O)C[C@H]6C)[C@H](O)[C@@]3(C)[C@@H]5CC[C@H]4C2(C)C)C1`, for which the results for the concentration for half-maximal inhibition (IC50) in test [1] and in test [2] were 0.68 µM and 15.9 µM, respectively.

In turn, `CCN1CCO[C@@H](O[C@H]2CC[C@]34C[C@]35CC[C@]3(C)[C@@H]6[C@H](O[C@@H]([C@H](OC(C)=O)C(C)(C)O)C[C@H]6C)[C@H](O)[C@@]3(C)[C@@H]5CC[C@H]4C2(C)C)C1` displayed a half-maximal inhibitory concentration (IC50) in test [1] of 0.19 µM. This compound had an inhibition in test [4] of 42%.

Regarding `CC(=O)O[C@@H]([C@H]1C[C@@H](C)[C@H]2[C@H](O1)[C@H](O)[C@@]1(C)[C@@H]3CC[C@H]4C(C)(C)[C@@H](O[C@H]5CN(C)CCO5)CC[C@@]45C[C@@]35CC[C@]21C)C(C)(C)O`, the IC50 in test [1] came to 0.13 µM; in test [2], 3.4 µM.

For the compound `CC(=O)O[C@@H]([C@H]1C[C@@H](C)[C@H]2[C@H](O1)[C@H](O)[C@@]1(C)[C@@H]3CC[C@H]4C(C)(C)[C@@H](O[C@H]5CN(CCC(=O)O)CCO5)CC[C@@]45C[C@@]35CC[C@]21C)C(C)(C)O`, the IC50 in test [1] stood at 0.49 µM; in test [2], 18.8 µM.

`CC(=O)O[C@@H]([C@H]1C[C@@H](C)[C@H]2[C@H](O1)[C@H](O)[C@@]1(C)[C@@H]3CC[C@H]4C(C)(C)[C@@H](O[C@H]5CN(Cc6ccccc6)CCO5)CC[C@@]45C[C@@]35CC[C@]21C)C(C)(C)O` had an IC50 in test [1] of 2 µM. The compound also returned an inhibition in test [4] of 4%.

`C[C@@H]1C[C@H]([C@H](O)C(C)(C)O)O[C@H]2[C@H]1[C@@]1(C)CC[C@@]34C[C@@]35CC[C@H](O[C@@H]3OC[C@@H](O)[C@H](O)[C@H]3O)C(C)(C)[C@@H]5CC[C@H]4[C@]1(C)[C@H]2O` registered a 50% inhibitory concentration (IC50) in test [1] of 3.1 µM.

In turn, `CC(=O)O[C@@H]([C@H]1C[C@@H](C)[C@H]2[C@H](O1)[C@H](O)[C@@]1(C)[C@@H]3CC[C@H]4C(C)(C)[C@@H](O[C@@H](CO)OCCO)CC[C@@]45C[C@@]35CC[C@]21C)C(C)(C)O` returned a half-maximal inhibitory concentration (IC50) in test [1] of 0.1 µM.

The compound `CC(=O)O[C@@H]([C@H]1C[C@@H](C)[C@H]2[C@H](O1)[C@H](O)[C@@]1(C)[C@@H]3CC[C@H]4C(C)(C)[C@@H](O[C@H]5CN(CCO)CCO5)CC[C@@]45C[C@@]35CC[C@]21C)C(C)(C)O` registered an IC50 in test [1] of 0.24 µM. Moreover, the inhibition in test [4] worked out at 46%.

On to `CC(=O)O[C@@H]([C@H]1C[C@@H](C)[C@H]2[C@H](O1)[C@H](O)[C@@]1(C)[C@@H]3CC[C@H]4C(C)(C)[C@@H](O[C@H]5CN(C6CC6)CCO5)CC[C@@]45C[C@@]35CC[C@]21C)C(C)(C)O`, for which the IC50 in test [1] was determined as 1 µM. This compound gave an inhibition in test [3] of 35%.

For `CC(=O)O[C@@H]([C@H]1C[C@@H](C)[C@H]2[C@H](O1)[C@H](O)[C@@]1(C)[C@@H]3CC[C@H]4C(C)(C)[C@@H](O[C@H]5CN(C(=O)c6ccno6)CCO5)CC[C@@]45C[C@@]35CC[C@]21C)C(C)(C)O`, the half-maximal inhibitory concentration (IC50) in test [1] was determined as 0.07 µM; in test [2], 4.8 µM.

`CC(=O)O[C@@H]([C@H]1C[C@@H](C)[C@H]2[C@H](O1)[C@H](O)[C@@]1(C)[C@@H]3CC[C@H]4C(C)(C)[C@@H](O[C@H]5CN(S(C)(=O)=O)CCO5)CC[C@@]45C[C@@]35CC[C@]21C)C(C)(C)O` returned an IC50 in test [1] of 0.08 µM. This compound had an inhibition in test [3] of 40%.

`CC(=O)OC(C)(C)[C@H]1O[C@@]23O[C@@H]1C[C@@H](C)C2[C@@]1(C)CC[C@@]24C[C@@]25CC[C@H](O[C@@H]2OC[C@@H](O)[C@H](O)[C@H]2O)C(C)(C)[C@@H]5CC[C@H]4[C@]1(C)[C@H]3O` (stereo not given in full) came in with a concentration for half-maximal inhibition (IC50) in test [1] of 3 µM.

As for `COCCN1CCO[C@@H](O[C@H]2CC[C@]34C[C@]35CC[C@]3(C)[C@@H]6[C@H](O[C@@H]([C@H](OC(C)=O)C(C)(C)O)C[C@H]6C)[C@H](O)[C@@]3(C)[C@@H]5CC[C@H]4C2(C)C)C1`, the concentration for half-maximal inhibition (IC50) amounted to 0.21 µM in test [1] and 7.6 µM in test [2].

On to `CC(=O)O[C@@H]([C@H]1C[C@@H](C)[C@H]2[C@H](O1)[C@H](O)[C@@]1(C)[C@@H]3CC[C@H]4C(C)(C)[C@@H](O[C@H]5CN(CC(=O)N(C)C)CCO5)CC[C@@]45C[C@@]35CC[C@]21C)C(C)(C)O`, for which the IC50 came to 0.14 µM in test [1] and 9 µM in test [2].

In turn, `CC(=O)O[C@@H]([C@H]1C[C@@H](C)[C@H]2[C@H](O1)[C@H](O)[C@@]1(C)[C@@H]3CC[C@H]4C(C)(C)[C@@H](O[C@H]5CN(Cc6ncc[nH]6)CCO5)CC[C@@]45C[C@@]35CC[C@]21C)C(C)(C)O` yielded an IC50 in test [1] of 0.12 µM. The compound further had an inhibition in test [4] of 38%.

Consider `CC(=O)O[C@@H]([C@H]1C[C@@H](C)[C@H]2[C@H](O1)[C@H](O)[C@@]1(C)[C@@H]3CC[C@H]4C(C)(C)[C@@H](O)CC[C@@]45C[C@@]35CC[C@]21C)C(C)(C)O`, for which 0.6 µM corresponded to half-maximal inhibition in test [1] (IC50).

As for `CC(=O)O[C@@H]([C@H]1C[C@@H](C)[C@H]2[C@H](O1)[C@H](O)[C@@]1(C)[C@@H]3CC[C@H]4C(C)(C)[C@@H](O[C@H]5CN(C(=O)CC6CC6)CCO5)CC[C@@]45C[C@@]35CC[C@]21C)C(C)(C)O`, the midpoint of inhibition in test [1], the IC50, lay at 0.13 µM. In addition, the inhibition in test [3] came out at 38%.

For the compound `CC(=O)O[C@@H]([C@H]1C[C@@H](C)[C@H]2[C@H](O1)[C@H](O)[C@@]1(C)[C@@H]3CC[C@H]4C(C)(C)[C@@H](O[C@H]5CN(C(=O)C6(C)COC6)CCO5)CC[C@@]45C[C@@]35CC[C@]21C)C(C)(C)O`, the figures for the IC50 in test [1] and in test [2] were 0.08 µM and 8 µM, respectively.

In test [1], `CC(=O)O[C@@H]([C@H]1C[C@@H](C)[C@H]2[C@H](O1)[C@H](O)[C@@]1(C)[C@@H]3CC[C@H]4C(C)(C)[C@@H](O[C@H]5CN(C6CCC6)CCO5)CC[C@@]45C[C@@]35CC[C@]21C)C(C)(C)O` displayed a half-maximal inhibitory concentration (IC50) of 0.35 µM. The compound also had an inhibition in test [4] of 44%.

On to `CC(=O)O[C@@H]([C@H]1C[C@@H](C)[C@H]2[C@H](O1)[C@H](O)[C@@]1(C)[C@@H]3CC[C@H]4C(C)(C)[C@@H](O[C@H]5CN([C@H]6CCNC6=O)CCO5)CC[C@@]45C[C@@]35CC[C@]21C)C(C)(C)O`, for which the half-maximal inhibitory concentration (IC50) is 0.2 µM in test [1] and 7 µM in test [2].

With `CC(=O)O[C@@H]([C@H]1C[C@@H](C)[C@H]2[C@H](O1)[C@H](O)[C@@]1(C)[C@@H]3CC[C@H]4C(C)(C)[C@@H](O[C@H]5CN(CC(=O)O)CCO5)CC[C@@]45C[C@@]35CC[C@]21C)C(C)(C)O`, the results for the 50% inhibitory concentration (IC50) in test [1] and in test [2] were 0.37 µM and 14 µM, respectively.

`CC(=O)O[C@@H]([C@H]1C[C@@H](C)[C@H]2[C@H](O1)[C@H](O)[C@@]1(C)[C@@H]3CC[C@H]4C(C)(C)[C@@H](O[C@H]5CN([C@@H]6CCNC6=O)CCO5)CC[C@@]45C[C@@]35CC[C@]21C)C(C)(C)O` gave a concentration for half-maximal inhibition (IC50) in test [1] of 0.12 µM. The compound also had an inhibition in test [3] of 44%.

As to `CC(=O)O[C@@H]([C@H]1C[C@@H](C)[C@H]2[C@H](O1)[C@H](O)[C@@]1(C)[C@@H]3CC[C@H]4C(C)(C)[C@@H](O[C@H]5CN(C(C)=O)CCO5)CC[C@@]45C[C@@]35CC[C@]21C)C(C)(C)O`, the results for the IC50 in test [1] and in test [2] were 0.09 µM and 13.4 µM, respectively.
